Assay results published in PubChem BioAssay (NCI).
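Test compounds were applied to cells in 96-well plates for 48 hours at 5 doses. GI50 marks 50% less growth. The concentration for full growth arrest is given as TGI.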

Assays:
Assay in all cases: NCI-60 cell line screen, 48 h
NCI-H23 lung = tested on: NCI-H23 lung
UACC-62 melanoma = tested on: UACC-62 melanoma
SK-OV-3 ovarian = tested on: SK-OV-3 ovarian
NCI-H226 lung = tested on: NCI-H226 lung
SW-620 colon = tested on: SW-620 colon
UACC-257 melanoma = tested on: UACC-257 melanoma
MDA-MB-231 breast = tested on: MDA-MB-231 breast
COLO 205 colon = tested on: COLO 205 colon
UO-31 renal = tested on: UO-31 renal
TK-10 renal = tested on: TK-10 renal
DU-145 prostate = tested on: DU-145 prostate
PC-3 prostate = tested on: PC-3 prostate
ACHN renal = tested on: ACHN renal
A498 renal = tested on: A498 renal
SK-MEL-28 melanoma = tested on: SK-MEL-28 melanoma
SF-295 CNS = tested on: SF-295 CNS
NCI-H460 lung = tested on: NCI-H460 lung
SK-MEL-5 melanoma = tested on: SK-MEL-5 melanoma
HOP-62 NSCLC = tested on: HOP-62 NSCLC
OVCAR-3 ovarian = tested on: OVCAR-3 ovarian
RPMI-8226 leukemia = tested on: RPMI-8226 leukemia
NCI-H522 lung = tested on: NCI-H522 lung
SF-268 CNS = tested on: SF-268 CNS
HS 578T breast = tested on: HS 578T breast
HT29 colon = tested on: HT29 colon
SNB-75 CNS = tested on: SNB-75 CNS
HOP-92 NSCLC = tested on: HOP-92 NSCLC
HCT-15 colon = tested on: HCT-15 colon
RXF 393 renal = tested on: RXF 393 renal
EKVX NSCLC = tested on: EKVX NSCLC
MDA-MB-435 = tested on: MDA-MB-435
CAKI-1 renal = tested on: CAKI-1 renal
SK-MEL-2 melanoma = tested on: SK-MEL-2 melanoma
SF-539 CNS = tested on: SF-539 CNS
U251 CNS = tested on: U251 CNS
K-562 leukemia = tested on: K-562 leukemia
OVCAR-5 ovarian = tested on: OVCAR-5 ovarian
KM12 colon = tested on: KM12 colon
MALME-3M melanoma = tested on: MALME-3M melanoma
A549 NSCLC = tested on: A549 NSCLC
SN12C renal = tested on: SN12C renal
CCRF-CEM leukemia = tested on: CCRF-CEM leukemia
HCC-2998 colon = tested on: HCC-2998 colon
LOX IMVI melanoma = tested on: LOX IMVI melanoma
OVCAR-8 ovarian = tested on: OVCAR-8 ovarian
NCI/ADR-RES ovarian = tested on: NCI/ADR-RES ovarian
OVCAR-4 ovarian = tested on: OVCAR-4 ovarian
786-0 renal = tested on: 786-0 renal
HCT-116 colon = tested on: HCT-116 colon
IGROV1 ovarian = tested on: IGROV1 ovarian
HL-60(TB) leukemia = tested on: HL-60(TB) leukemia
T-47D breast = tested on: T-47D breast
BT-549 breast = tested on: BT-549 breast
SR leukemia = tested on: SR leukemia
M14 melanoma = tested on: M14 melanoma

## NC(N)=N/N=C/c1c(-c2ccc(Cl)c(Cl)c2Cl)nc2sccn12
NCI-H23 lung
  TGI: 2.65 µM
UACC-62 melanoma
  TGI: 2.81 µM
SK-OV-3 ovarian
  TGI: 3.33 µM
NCI-H226 lung
  TGI: 3.56 µM
SW-620 colon
  TGI: 3.07 µM
UACC-257 melanoma
  TGI: 3.02 µM
MDA-MB-231 breast
  TGI: 2.47 µM
COLO 205 colon
  TGI: 2.73 µM
UO-31 renal
  TGI: 2.82 µM
TK-10 renal
  TGI: 2.7 µM
DU-145 prostate
  TGI: 3.12 µM
PC-3 prostate
  TGI: > 100 µM
ACHN renal
  TGI: > 100 µM
A498 renal
  TGI: 2.3 µM
SK-MEL-28 melanoma
  TGI: 3.12 µM
SF-295 CNS
  TGI: 3.29 µM

## CC(=O)O[C@H]1CC[C@]2(C)[C@H]3C(=O)C=C4[C@@H]5C[C@](C)(C(=O)N6CCCNCC6)CC[C@]5(C)CC[C@@]4(C)[C@]3(C)CC[C@H]2C1(C)C
NCI-H460 lung
  GI50: 1.58 µM
  TGI: 3.11 µM
NCI-H23 lung
  GI50: 1.73 µM
  TGI: 3.37 µM
SK-MEL-5 melanoma
  GI50: 2.1 µM
  TGI: 4.42 µM
UACC-62 melanoma
  GI50: 1.69 µM
  TGI: 3.13 µM
SK-OV-3 ovarian
  GI50: 1.87 µM
  TGI: 3.48 µM
HOP-62 NSCLC
  GI50: 1.78 µM
  TGI: 4.14 µM
OVCAR-3 ovarian
  GI50: 1.76 µM
  TGI: 3.29 µM
RPMI-8226 leukemia
  GI50: 1.46 µM
  TGI: 4.01 µM
NCI-H522 lung
  GI50: 1.68 µM
  TGI: 3.42 µM
SW-620 colon
  GI50: 1.67 µM
  TGI: 3.22 µM
UACC-257 melanoma
  GI50: 1.98 µM
  TGI: 4.26 µM
SF-268 CNS
  GI50: 1.8 µM
  TGI: 3.58 µM
HS 578T breast
  GI50: 2.13 µM
  TGI: 4.69 µM
HT29 colon
  GI50: 1.5 µM
  TGI: 3.17 µM
SNB-75 CNS
  GI50: 1.34 µM
  TGI: 2.64 µM
HOP-92 NSCLC
  GI50: 1.08 µM
  TGI: 2.41 µM
HCT-15 colon
  GI50: 1.48 µM
  TGI: 2.97 µM
RXF 393 renal
  GI50: 1.66 µM
  TGI: 3.24 µM
EKVX NSCLC
  GI50: 1.67 µM
  TGI: 3.15 µM
MDA-MB-435
  GI50: 1.59 µM
  TGI: 2.97 µM
CAKI-1 renal
  GI50: 1.43 µM
  TGI: 2.79 µM
SK-MEL-2 melanoma
  GI50: 1.93 µM
  TGI: 3.7 µM
UO-31 renal
  GI50: 1.4 µM
  TGI: 2.82 µM
TK-10 renal
  GI50: 1.77 µM
  TGI: 3.45 µM
SF-539 CNS
  GI50: 1.62 µM
  TGI: 3 µM
U251 CNS
  GI50: 1.6 µM
  TGI: 3.37 µM
K-562 leukemia
  GI50: 1.27 µM
  TGI: 4.27 µM
OVCAR-5 ovarian
  GI50: 1.6 µM
  TGI: 2.96 µM
KM12 colon
  GI50: 1.71 µM
  TGI: 3.21 µM
DU-145 prostate
  GI50: 1.71 µM
  TGI: 3.15 µM
ACHN renal
  GI50: 1.66 µM
  TGI: 3.02 µM
MALME-3M melanoma
  GI50: 1.8 µM
  TGI: 3.47 µM
A498 renal
  GI50: 1.71 µM
  TGI: 3.1 µM
A549 NSCLC
  GI50: 1.82 µM
  TGI: 4.67 µM
SK-MEL-28 melanoma
  GI50: 1.85 µM
  TGI: 3.29 µM
SF-295 CNS
  GI50: 1.76 µM
  TGI: 3.2 µM

## CO/N=C(\COc1ccc2c(=O)cc(-c3ccccc3)oc2c1)c1ccc(OC)cc1
SN12C renal
  GI50: 88.2 µM
  TGI: > 100 µM
NCI-H23 lung
  GI50: > 100 µM
  TGI: > 100 µM
SK-MEL-5 melanoma
  GI50: > 100 µM
  TGI: > 100 µM
CCRF-CEM leukemia
  GI50: > 100 µM
  TGI: > 100 µM
HCC-2998 colon
  GI50: > 100 µM
  TGI: > 100 µM
UACC-62 melanoma
  GI50: > 100 µM
  TGI: > 100 µM
SK-OV-3 ovarian
  GI50: > 100 µM
  TGI: > 100 µM
HOP-62 NSCLC
  GI50: > 100 µM
  TGI: > 100 µM
OVCAR-3 ovarian
  GI50: 23.2 µM
  TGI: 44.8 µM
LOX IMVI melanoma
  GI50: > 100 µM
  TGI: > 100 µM
RPMI-8226 leukemia
  GI50: 74 µM
  TGI: > 100 µM
NCI-H226 lung
  GI50: > 100 µM
  TGI: > 100 µM
NCI-H522 lung
  GI50: > 100 µM
  TGI: > 100 µM
SW-620 colon
  GI50: > 100 µM
  TGI: > 100 µM
UACC-257 melanoma
  GI50: > 100 µM
  TGI: > 100 µM
HS 578T breast
  GI50: > 100 µM
  TGI: > 100 µM
MDA-MB-231 breast
  GI50: 48.4 µM
  TGI: > 100 µM
HT29 colon
  GI50: > 100 µM
  TGI: > 100 µM
OVCAR-8 ovarian
  GI50: > 100 µM
  TGI: > 100 µM
SNB-75 CNS
  GI50: 38.2 µM
  TGI: > 100 µM
HOP-92 NSCLC
  GI50: 20.2 µM
  TGI: 96.4 µM
HCT-15 colon
  GI50: > 100 µM
  TGI: > 100 µM
NCI/ADR-RES ovarian
  GI50: > 100 µM
  TGI: > 100 µM
RXF 393 renal
  GI50: > 100 µM
  TGI: > 100 µM
EKVX NSCLC
  GI50: > 100 µM
  TGI: > 100 µM
OVCAR-4 ovarian
  GI50: 56.2 µM
  TGI: > 100 µM
786-0 renal
  GI50: > 100 µM
  TGI: > 100 µM
MDA-MB-435
  GI50: 30 µM
  TGI: > 100 µM
CAKI-1 renal
  GI50: 24.9 µM
  TGI: 70.3 µM
SK-MEL-2 melanoma
  GI50: > 100 µM
  TGI: > 100 µM
COLO 205 colon
  GI50: > 100 µM
  TGI: > 100 µM
HCT-116 colon
  GI50: > 100 µM
  TGI: > 100 µM
UO-31 renal
  GI50: > 100 µM
  TGI: > 100 µM
TK-10 renal
  GI50: > 100 µM
  TGI: > 100 µM
IGROV1 ovarian
  GI50: > 100 µM
  TGI: > 100 µM
HL-60(TB) leukemia
  GI50: > 100 µM
  TGI: > 100 µM
SF-539 CNS
  GI50: > 100 µM
  TGI: > 100 µM
U251 CNS
  GI50: > 100 µM
  TGI: > 100 µM
K-562 leukemia
  GI50: > 100 µM
  TGI: > 100 µM
OVCAR-5 ovarian
  GI50: > 100 µM
  TGI: > 100 µM
KM12 colon
  GI50: 81.4 µM
  TGI: > 100 µM
DU-145 prostate
  GI50: > 100 µM
  TGI: > 100 µM
T-47D breast
  GI50: 53.5 µM
  TGI: > 100 µM
PC-3 prostate
  GI50: > 100 µM
  TGI: > 100 µM
ACHN renal
  GI50: > 100 µM
  TGI: > 100 µM
BT-549 breast
  GI50: > 100 µM
  TGI: > 100 µM
SR leukemia
  GI50: > 100 µM
  TGI: > 100 µM
MALME-3M melanoma
  GI50: > 100 µM
  TGI: > 100 µM
A498 renal
  GI50: 90.9 µM
  TGI: > 100 µM
A549 NSCLC
  GI50: > 100 µM
  TGI: > 100 µM
SK-MEL-28 melanoma
  GI50: > 100 µM
  TGI: > 100 µM
M14 melanoma
  GI50: > 100 µM
  TGI: > 100 µM
SF-295 CNS
  GI50: 21 µM
  TGI: 46.5 µM
